Results reported in EP0099122A2, “Compositions comprising pepstatin and an histamine H2-receptor antagonist having an enhanced antiulcer activity” (Bristol-Myers Company, priority 1982, dated 1984).
“Also recorded” adds a separate entry of the source. Square brackets hold non-standard residues; d marks the D form. Peptide text beside a SMILES is read from it. * marks the point of attachment. Sta = CC(C)C[C@H](N)[C@@H](O)CC(=O)O; Isovaleryl = CC(C)CC(=O)*

Columns and labels:
[1] = system: pepsin activity in the gastric juice of swine; conditions: added to the feed at >50 ppm; cited from earlier work
gastric peptic activity = conditions: patients with ulcer dyspepsia, cited from earlier work
gastric ulcer = conditions: 100 mg doses seven times a day versus placebo; cited from earlier work
pylorus ligated rat [2] = conditions: pylorus ligated (Shay) rat, Umezawa et al.; cited from earlier work
[3] = all animal species studied; cited from earlier work
pepsin = conditions: 100 mg doses seven times a day, ulcer patients; cited from earlier work
pylorus ligated rat [4] = assay: Pylorus ligated (Shay) rat; type: in vivo; conditions: 20 mg/kg po, 18 hour pylorus ligated rat, previous studies of the applicant
Protocol: The role of the proteolytic enzyme, pepsin, in the etiology of ulceration is not completely understood. […] It is also possible that pepsin is entirely responsible for the erosions and that the acid produces pain and retards healing. • 1) Umezawa, H. et al., in J. Antibiotics, 23, 259-262 (1970), disclose the pentapeptide, pepstatin, which has the structure [drawing 4] and which is a specific complexing agent for the enzyme pepsin. […] Pepstatin was administered in 100 mg doses, given seven aimes a day, this dosage being sufficient to inhibit the peptic activity of gastric juice for 18 hours a day. […] J. Gastroent., 14, 929-932 (1979), report the results of a double-blind randomized clinical trial of pepstatin versus placebo in patients having gastric ulcer. Pepstatin was administered in 100 mg doses seven times a day. […] When the two agents were given together, significant ulcer reduction was found after only one-half day of predosing. Carbenoxolone is not an antisecretory or anti-pepsin agent, but acts by stimulating gastric mucus synthesis. • 6) Dajani, E. Z. et al., in J. Pharmacol. Exp. Ther., 210, 373-377 (1979), disclose that, in stress ulceration tests in rats, a combination of cimetidine and propantheline bromide produced synergistic antiulcer activity and that a combination of cimetidine and thiopropazate hydrochloride produced additive antiulcer activity. […]

duodenal ulcer = conditions: 100 mg doses seven times a day versus placebo; cited from earlier work
[5] = cited from earlier work

CC(C)CC(=O)N[C@H](C(=O)N[C@H](C(=O)N[C@@H](CC(C)C)[C@@H](O)CC(=O)N[C@@H](C)C(=O)N[C@@H](CC(C)C)[C@@H](O)CC(=O)O)C(C)C)C(C)C [Pepstatin, pepstatin] (Isovaleryl-VV[Sta]A[Sta]-OH)
occurrence of ulcers [1]: prevented the occurrence of ulcers
pepsin activity in the gastric juice [1]: inhibited pepsin activity in the gastric juice of swine
side effects (gastric peptic activity; daily oral doses of 700 mg for up to three months): no side effects were observed
gastric acidity (gastric peptic activity): has no effect on the gastric acidity
gastric peptic activity (gastric peptic activity): inhibits gastric peptic activity
healing or symptomatology of gastric ulcer (gastric ulcer): not able to detect any influence of pepstatin
formation of stomach ulcers (pylorus ligated rat [2]): prevent the formation of stomach ulcers
LD50 [3]: exceeded 3000 mg/kg
time for which pepsin activity was inhibited (pepsin): 18 hours a day
pepsin activity (pylorus ligated rat [4]): completely inhibited pepsin activity
ulcer formation (pylorus ligated rat [4]): antagonized ulcer formation
healing or symptomatology of duodenal ulcer (duodenal ulcer): no significant difference between pepstatin and placebo
excreted in the feces ([5]; oral administration, animal studies, within 72 hours): more than 90%
absorption upon oral administration ([5]; oral): essentially unabsorbed; also recorded: only poorly absorbed
